According to patent US20190380941A1, “COMPOSITION COMPRISING A TRUFFLE EXTRACT AND NEOHESPERIDIN DIHYDROCHALCONE” (L'OREAL, priority 2016, published 2019):

System: filaggrin
Test: Filaggrin expression in normal human keratinocytes (NHEK), in-situ immunolabelling
Assay type: cell-based
Conditions: 72 hours incubation; for Mean filaggrin (AU): fluorescence intensity relative to number of cells, control 12261; for Mean filaggrin (AU) / % relative to the control (filaggrin): truffle extracts 4.5·10^−3% by weight of active material, Neohesperidin DHC 0.3 mg/ml, CaCl2 1.5 mM; for increase of filaggrin protein expression relative to the control: same concentrations as in the table, change versus control; for % relative to the control (filaggrin): control = 100
Excerpt: The in vitro effect of the combination of neohesperidin dihydrochalcone (neohesperidin DHC) and an extract of black (Périgord) truffle (Tuber melanosporum) and/or an extract of white (summer) truffle (Tuber aestivum) on keratinocyte differentiation is studied. The expression and the location of the marker of filaggrin differentiation are especially studied in keratinocytes in culture which thus makes it possible to evaluate the ability of these combinations to increase the differentiation of these cells. The culture medium is: Keratinocyte-SFM supplemented with: • 0.25 ng/ml Epidermal Growth Factor (EGF); • 25 μg/ml pituitary extract (PE); • 25 μg/ml Gentamicin; The test medium is Keratinocyte-SFM supplemented with 25 μg/ml Gentamicin. The keratinocytes were seeded into 96-well plates and cultured in culture medium for 168 hours with renewal of the culture medium after 24 and 96 hours of incubation. […] All the experimental conditions were carried out in n=3, except the control condition which was carried out in n=6. After incubation, the medium was eliminated and the cells were rinsed, fixed and permeabilized. The cells were then labelled with the primary antibody (see Table A) directed against the protein of interest (filaggrin). […] At the same time, the nuclei of the cells were stained with Hoechst 33258 (bisbenzimide). [table] The image acquisition was carried out with an INCellAnalyzer™ 1000 (GE Healthcare) high-resolution imaging system. For each well, 10 digitized images were captured for each immunolabelling (×20 objective).

[Ca+2].[Cl-].[Cl-] [CaCl2, calcium chloride]
Mean filaggrin (AU): 74795 AU | increase of filaggrin protein expression relative to the control: +510% | % relative to the control (filaggrin): 610%

COc1ccc(CCC(=O)c2c(O)cc(O[C@@H]3O[C@H](CO)[C@@H](O)[C@H](O)[C@H]3O[C@@H]3O[C@@H](C)[C@H](O)[C@@H](O)[C@H]3O)cc2O)cc1O [Neohesperidin DHC, 1-(4-((2-O-[6-Deoxy-α-L-mannopyranosyl]-β-D-glucopyranosyl)oxy)-2,6-dihydroxyphenyl)-3-[3-hydroxy-4-methoxyphenyl]-1-propanone]
Mean filaggrin (AU): 18840 AU | increase of filaggrin protein expression relative to the control: +54% | % relative to the control (filaggrin): 154%
